Measurements as given in patent US7589123B2, “Chemical compounds” (Phytopharm PLC, priority 2006, dated 2009).

Legend:
[1] = test system: 5-HT-induced contractions in guinea pig ileum; assay: Inhibition of 5-HT-induced contractions in guinea pig ileum (Assay 3); settings: Cavia porcellus, 5-HT 2.6 μM, read-out: Inhibition of 5-HT-induced contraction (%)
Experimental: (§1) Duncan Hartley derived male guinea pigs (325±25 g) were suppressed by CO2 overexposure, the abdominal cavity was exposed and ileal segments were removed. Small strips of ileum were suspended in organ baths containing Krebs solution (composition in g/l: NaCl 6.89, KCl 0.35, CaCl2 0.277, KH2PO4 0.163, MgSO4.7H2O 0.296, NaHCO3 2.1 glucose 1.8). The solution was kept at 32° C. and gassed with O2 (95%)-CO2 (5%) to maintain pH at 7.4. Mechanical activity was recorded by means of isotonic transducers. A resting tension of 1 g was applied to muscle strips before being equilibrated for 1 h, prior to test compound addition. Each preparation was washed twice at 15 min intervals during the equilibration.
(§2) Histamine (1.7 μM; approximately EC60-70) or 5-hydroxytryptamine (5-HT, 2.6 μM; approximately EC60-70) was applied for 5 min and the amplitude of the contraction recorded. The histamine or 5-HT was then washed out until the ileal tissue returned to baseline. Five min after returning to baseline test compound (3 and 30 μM) was applied and the amplitude of the contraction (if any) was recorded. In the continuous presence of test compound, histamine or 5-HT was re-applied and the inhibition of the response was recorded.

5-lipoxygenase = molecular target: T1, 5-lipoxygenase (Homo sapiens, UniProt P09917); assay: 5-lipoxygenase activity (LTB4) in human peripheral blood mononuclear leukocytes (Assay 6); format: cell-based; settings: human PBMLs, A23187 30 μM, read-out: Inhibition of 5-LO (%)
T1 construct: endogenous in cells; host or cells: human peripheral blood mononuclear leukocytes (PBMLs)
T1 sequence (P09917 1-674): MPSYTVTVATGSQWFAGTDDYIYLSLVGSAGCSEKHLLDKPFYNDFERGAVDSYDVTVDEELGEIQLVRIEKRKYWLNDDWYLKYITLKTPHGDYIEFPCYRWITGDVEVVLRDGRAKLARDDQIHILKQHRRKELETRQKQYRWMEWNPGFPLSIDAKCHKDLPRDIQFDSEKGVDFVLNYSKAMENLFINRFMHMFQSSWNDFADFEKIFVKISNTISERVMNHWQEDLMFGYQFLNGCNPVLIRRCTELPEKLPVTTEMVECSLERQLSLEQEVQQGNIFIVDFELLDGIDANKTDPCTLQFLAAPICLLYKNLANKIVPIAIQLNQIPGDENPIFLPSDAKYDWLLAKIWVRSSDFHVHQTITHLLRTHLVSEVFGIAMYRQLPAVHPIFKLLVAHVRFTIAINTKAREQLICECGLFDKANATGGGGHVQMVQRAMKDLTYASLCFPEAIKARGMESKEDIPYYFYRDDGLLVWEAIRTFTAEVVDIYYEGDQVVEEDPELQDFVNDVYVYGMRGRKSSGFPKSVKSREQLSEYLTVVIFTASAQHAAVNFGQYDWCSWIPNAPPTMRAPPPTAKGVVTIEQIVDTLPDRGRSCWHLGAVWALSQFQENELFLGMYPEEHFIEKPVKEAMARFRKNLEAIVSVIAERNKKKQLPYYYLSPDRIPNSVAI
Experimental: Human peripheral blood mononuclear leukocytes (PBMLs) were isolated using a Ficoll-Paque density gradient. Human peripheral blood mononuclear leukocytes (5×10^6 cells) were incubated with A23187 (30 μM), a divalent cation ionophore used to initiate the biosynthesis of […], and with vehicle (0.1% DMSO) or test compound (3 and 30 μM) in Hank's balanced salt solution (HBBS) buffer, pH 7.4 at 37° C. for 15 min. The PBML solution was neutralized with NaOH (1 N) and centrifuged at 1000 g for 10 min and the supernatant collected. The concentration of leukotriene B4 (LTB4) in the supernatant was measured using an enzyme immunoassay kit (Assay Design Inc.). A reduction in the concentration of LTB4 indicated an inhibition of the enzyme 5-lipoxygenase (Table 11).

[2] = test system: histamine-induced contractions in guinea pig ileum; assay: Inhibition of histamine-induced contractions in guinea pig ileum (Assay 3); settings: Cavia porcellus, histamine 1.7 μM, read-out: Inhibition of histamine-induced contraction (%)
Experimental: as §1, §2

WI-38 cells = assay: Viability of WI-38 cells, Alamar Blue (Assay 5); format: cell-based, human
Experimental: (§3) Human diploid lung fibroblasts (WI-38 cells) were incubated overnight in the presence of IL-1α (1 nM) and test compound (3 and 30 μM) in modified Eagle medium at pH 7.3 containing foetal bovine serum (10%) at 37° C. The supernatant was assayed by radioimmunoassay for released PGE2 and the inhibition of PGE2 by test compound calculated (Table 10). The viability of the cells was then assessed by washing with Roswell Park Memorial Institute medium and adding Alamar Blue reagent before being incubated at 37° C. for 4 h. Living cells take up Alamar Blue and emit fluorescence when excited. Fluorescence intensity was measured using a SpectroFluor Plus plate reader with excitation at 530 nm and emission at 590 nm (Table 10).

[3] = test system: α-smooth muscle actin (α-SMA) mRNA; assay: Anti-remodelling activity in human lung fibroblasts (HFL1): TGFβ-induced α-SMA mRNA (Assay 4); format: cell-based; settings: Homo sapiens, HFL1 cells, TGFβ 10 ng/ml, 24 h, read-out: Inhibition of α-SMA mRNA synthesis (%)
Experimental: A human foetal lung fibroblast cell line (HFL1 cells; ATCC accession number CCl-153) was used in this assay. The cells were cultured in medium containing a low level of foetal bovine serum (FBS; 0.1%) for 24 h. After 24 h of culturing the medium was changed to: (a) Control medium (medium containing 10% FBS, 1% phosphate saline and 0.5 mM L-glutamine), (b) Control medium and transforming growth factor beta (TGFβ; 10 ng/ml), (c) Control medium and TGFβ and test compounds (3 and 30 μM). The medium was collected after 24 h and the total mRNA extracted in Tri-reagent. The level of mRNA coding for α-smooth muscle actin (α-SMA) was assessed by real-time reverse transcription-polymerase chain reaction (rtRT-PCR) using primer couples that allow the amplification of α-SMA mRNA. Liver glyceraldehydes 3-phosphate dehydrogenase (GADPH) was used as a reference marker in this experiment. The inhibition of the TGTβ-induced overexpression of α-SMA mRNA by the test compounds was quantified.

[4] = test system: IL-1α-induced PGE2 release; assay: IL-1α-induced PGE2 release in human diploid lung fibroblasts (WI-38) (Assay 5); format: cell-based; settings: Homo sapiens, WI-38 cells, IL-1α 1 nM, overnight
Experimental: as §3

TRPV1 receptor = TRPV1 receptor (Rattus norvegicus, UniProt O35433); assay: TRPV1 modulation in DRG neurones: CGRP release in absence and presence of capsaicin (Assay 2); format: cell-based; set-up: The culture used for this experiment contained sensory neurones, Schwann cells and fibroblasts; endogenous in cells; host or cells: primary rat DRG sensory neurone culture (with Schwann cells and fibroblasts); settings: 20 min; for inhibition at 3 µM: 3 μM with capsaicin 1 μM; for inhibition at 3 µM / inhibition at 30 µM: −ve: inhibition, +ve: potentiation of capsaicin response, read-out: Effect of test compounds on capsaicin (1 μM)-induced CGRP release (%); for inhibition at 30 µM: 30 μM with capsaicin 1 μM; for Emax at 3 µM: test compound alone 3 μM; for Emax at 3 µM / Emax at 30 µM: rat DRG sensory neurones, read-out: CGRP release (% of capsaicin (1 μM) response); for Emax at 30 µM: test compound alone 30 μM
Chain of TRPV1 receptor (O35433 whole entry): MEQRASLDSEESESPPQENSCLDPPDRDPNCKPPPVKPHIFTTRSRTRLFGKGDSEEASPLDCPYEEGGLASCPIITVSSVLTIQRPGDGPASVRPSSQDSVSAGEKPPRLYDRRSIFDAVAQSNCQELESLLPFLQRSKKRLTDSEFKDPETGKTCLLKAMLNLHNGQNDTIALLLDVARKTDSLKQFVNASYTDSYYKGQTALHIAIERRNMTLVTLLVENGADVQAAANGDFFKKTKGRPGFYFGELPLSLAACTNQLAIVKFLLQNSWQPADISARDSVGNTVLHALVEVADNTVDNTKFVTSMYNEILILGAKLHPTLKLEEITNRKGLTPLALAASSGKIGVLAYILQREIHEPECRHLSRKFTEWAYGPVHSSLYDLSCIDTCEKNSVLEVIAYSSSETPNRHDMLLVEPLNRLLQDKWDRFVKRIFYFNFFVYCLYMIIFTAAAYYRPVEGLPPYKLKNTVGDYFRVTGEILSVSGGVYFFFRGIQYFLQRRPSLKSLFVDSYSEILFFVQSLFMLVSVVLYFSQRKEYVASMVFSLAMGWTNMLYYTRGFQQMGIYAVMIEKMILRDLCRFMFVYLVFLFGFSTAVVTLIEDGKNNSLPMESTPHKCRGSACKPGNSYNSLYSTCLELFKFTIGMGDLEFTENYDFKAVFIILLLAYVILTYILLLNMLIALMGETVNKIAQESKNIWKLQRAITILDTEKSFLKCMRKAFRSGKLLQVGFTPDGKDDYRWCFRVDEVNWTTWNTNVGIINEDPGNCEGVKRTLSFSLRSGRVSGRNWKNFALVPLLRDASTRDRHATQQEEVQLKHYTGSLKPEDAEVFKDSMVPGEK

Row | SMILES | inhibition at 3 µM [1] [%] | inhibition at 3 µM (5-lipoxygenase) [%] | inhibition at 30 µM (5-lipoxygenase) [%] | inhibition at 3 µM [2] [%] | inhibition at 30 µM [2] [%] | Decrease in cell viability (%) (WI-38 cells; 3 μM) | Decrease in cell viability (%) (WI-38 cells; 30 μM) | inhibition at 3 µM [3] [%] | inhibition at 30 µM [3] [%] | inhibition at 3 µM [4] [%] | inhibition at 30 µM [4] [%] | inhibition at 3 µM (TRPV1 receptor) [%] | inhibition at 30 µM (TRPV1 receptor) [%] | Emax at 3 µM (TRPV1 receptor) [%] | Emax at 30 µM (TRPV1 receptor) [%] | inhibition at 30 µM [1] [%]
1 | COc1cc(CCC(=O)CC(=O)Cc2cccc3ccccc23)ccc1O [Compound 29, 6-(4-Hydroxy-3-methoxyphenyl)-1-naphthalen-1-yl-hexane-2,4-dione] | 5 | 47 | 98 | 17 | 89 | −1 | 12 | 33 | 86 | 86 | 99 | 46 | -41 | 65 | 164 | 
2 | COc1cc(CCC(=O)CC(=O)c2ccccc2Cl)ccc1O [Compound 74, 1-(2-Chlorophenyl)-5-(4-hydroxy-3-methoxyphenyl)pentane-1,3-dione] | 10 | 60 | 98 | 1 | 41 | 1 | 16 | -4 | 53 | 99 | 101 | 15 | 6 | 54 | 75 | 89
3 | COc1cc(CCC(=O)CC(=O)c2ccc(O)c(OC)c2)ccc1O [Compound 15, 1,5-Bis(4-hydroxy-3-methoxyphenyl)-pentane-1,3-dione] | 0 | 16 | 63 | 0 | 13 | −2 | −1 | 13 | 29 | 49 | 95 | 18 | 27 | 34 | 34 | 54
4 | COc1cc(CCC(=O)C(C)(C)C(=O)c2ccc(C)cc2)ccc1O [Compound 81, 5-(4-Hydroxy-3-methoxyphenyl)-2,2-dimethyl-1-p-tolylpentane-1,3-dione] | 21 | 64 | 97 | 22 | 94 | 3 | −7 | -2 | 55 | 62 | 101 | 25 | -22 | 45 | 104 | 95
5 | COc1cc(CCC(=O)C(C)(C)C(=O)C(C)(C)C)ccc1O [Compound 71, 1-(4-Hydroxy-3-methoxyphenyl)-4,4,6,6-tetramethylheptane-3,5-dione] | 3 | 6 | 48 | 0 | 35 | −1 | 11 | -1 | 20 | 41 | 95 | 26 | 29 | 48 | 38 | 53
6 | COc1cc(CCC(=O)CC(=O)C(C)(C)c2ccccc2)ccc1O [Compound 31, 6-(4-Hydroxy-3-methoxyphenyl)-1,1-dimethyl-1-phenyl-hexane-2,4-dione] | 10 | 32 | 95 | 12 | 68 | 5 | −7 | 34 | 80 | 83 | 101 | 17 | -77 | 56 | 109 | 96
7 | COc1cc(CCC(=O)CC(=O)c2ccc(F)cc2)ccc1O [Compound 20, 1-(4-Fluorophenyl)-5-(4-hydroxy-3-methoxyphenyl)-pentane-1,3-dione] | 2 | 58 | 98 | 0 | 22 | 3 | 10 | -8 | 11 | 87 | 99 | 29 | 4 | 46 | 96 | 74
